Reference: US6620828B2, “Thiazole compounds and pharmaceutical compositions for inhibiting protein kinases and methods for their use” (Agouron Pharmaceuticals, Inc., priority 1999, dated 2003)

Legend:
[1] = system: human umbilical vein endothelial cells (HUVEC); assay: HUVEC proliferation assay; format: cell-based; details: Homo sapiens, HUVEC, Table 3
Outline: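 Readout was MTT dye reduction (A595) after 72 h of stimulation with VEGF at 6 ng/ml final. Compound, in 0.1% DMSO final, was added 1 h before VEGF to HUVEC starved 24 h in 1% FBS. % inhibition was scaled between VEGF-alone and unstimulated wells; IC50 was fitted from triplicate dose curves.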

[2] = biological target: T1, unphosphorylated VEGF-R2Δ50 (FLVK) (Homo sapiens, UniProt P35968, DEL940-989/E990V); assay: VEGF-R2 coupled spectrophotometric assay, unphosphorylated enzyme (FLVK); format: biochemical; details: Table 3; some entries 'Slow binder'
T1 construct: VEGF-R2Δ50 contains residues 806-939 and 990-1171; made in house; host or cells: baculovirus/insect cells
T1 sequence (P35968 with tags, fused parts or gaps DEL940-989/E990V limits assumed): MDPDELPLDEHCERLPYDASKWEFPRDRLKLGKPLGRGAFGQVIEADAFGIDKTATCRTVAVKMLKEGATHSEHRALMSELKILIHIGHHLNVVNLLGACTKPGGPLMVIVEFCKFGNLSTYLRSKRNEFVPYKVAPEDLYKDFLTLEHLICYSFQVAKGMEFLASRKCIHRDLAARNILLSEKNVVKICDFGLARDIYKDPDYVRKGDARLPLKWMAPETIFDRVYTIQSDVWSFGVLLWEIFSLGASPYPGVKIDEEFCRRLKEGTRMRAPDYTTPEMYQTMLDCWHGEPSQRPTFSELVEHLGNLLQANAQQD
Outline: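 Unphosphorylated VEGF-R2Δ50 (5 to 40 nM) with 20 mM poly(E4Y1), 3 mM ATP, 60 mM MgCl2, 2 mM MnCl2 in 200 mM Hepes pH 7.5. ADP production coupled via PK/LDH to NADH oxidation, read at 340 nm. Ki from activity at varying compound concentrations.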

FGF-R1 = biological target: T2, FGF-R1 (Homo sapiens, UniProt P11362, C488A/C584S/L457V); assay: FGF-R spectrophotometric assay; format: biochemical; details: Table 3; % inh @ 1 uM; read-out: FGF-P Ki (nM) (% inh @ 1 uM)
T2 construct: starting from the endogenous methionine residue 456 to glutamate 766; made in house; host or cells: baculovirus vector expression system
T2 sequence (P11362 456-766 L457V/C488A/C584S): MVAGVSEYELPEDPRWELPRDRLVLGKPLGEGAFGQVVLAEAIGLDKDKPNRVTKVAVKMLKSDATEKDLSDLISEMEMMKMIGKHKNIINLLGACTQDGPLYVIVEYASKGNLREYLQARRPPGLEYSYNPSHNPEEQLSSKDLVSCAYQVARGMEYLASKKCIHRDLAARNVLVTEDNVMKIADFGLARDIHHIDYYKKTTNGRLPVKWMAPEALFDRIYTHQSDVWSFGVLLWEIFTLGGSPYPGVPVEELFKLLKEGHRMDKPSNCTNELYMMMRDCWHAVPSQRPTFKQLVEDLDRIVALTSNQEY
Description: FGF-R1 Construct for Assay: The intracellular kinase domain of human FGF-R1 was expressed using the baculovirus vector expression system starting from the endogenous methionine residue 456 to glutamate 766, according to the residue numbering system of Mohammadi et al., Mol. Cell. Biol., 16, 977-989 (1996). In addition, the construct also has the following 3 amino acid substitutions: L457V, C488A, and C584S.
The spectrophotometric assay was carried out as described above for VEGF-R2, except for the following changes in concentration: FGF-R=50 nM, ATP=2 mM, and poly(E4Y1)=15 mM.

[3] = system: lung cancer cells (line MV522); assay: Cancer cell proliferation (MV522) assay; format: cell-based; details: MV522, Table 3
LCK tyrosine kinase = biological target: T3, LCK tyrosine kinase (Homo sapiens, UniProt P06239, C224D/P223M); assay: LCK spectrophotometric assay; format: biochemical; details: Table 3, read-out: LCK (% inh @ 1 uM)
T3 construct: starting from amino acid residue 223 to the end of the protein at residue 509; made in house; host or cells: insect cells
T3 sequence (P06239 223-509 P223M/C224D): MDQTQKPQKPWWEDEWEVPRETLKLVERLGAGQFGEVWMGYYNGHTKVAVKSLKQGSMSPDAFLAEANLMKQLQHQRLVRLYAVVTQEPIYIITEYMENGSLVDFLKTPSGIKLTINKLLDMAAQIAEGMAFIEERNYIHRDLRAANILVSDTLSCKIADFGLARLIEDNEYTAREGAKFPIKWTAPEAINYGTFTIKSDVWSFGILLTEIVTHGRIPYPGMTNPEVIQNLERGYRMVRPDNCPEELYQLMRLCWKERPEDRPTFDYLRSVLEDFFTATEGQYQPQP

[4] = biological target: T4, phosphorylated VEGF-R2Δ50 (FLVK-P) (Homo sapiens, UniProt P35968, DEL940-989/E990V); assay: VEGF-R2 coupled spectrophotometric (FLVK-P) assay; format: biochemical; details: Table 3; at 50 nM
T4 construct: VEGF-R2Δ50 contains residues 806-939 and 990-1171; made in house; host or cells: baculovirus/insect cells
T4 sequence (P35968 with tags, fused parts or gaps DEL940-989/E990V limits assumed): as the sequence (P35968 with tags, fused parts or gaps DEL940-989/E990V limits assumed) above
Outline: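 Baculovirus-expressed human VEGF-R2Δ50 (residues 806-939/990-1171, E990V) was autophosphorylated with 3 mM ATP, 40 mM MgCl2 for 2 h at 4° C. ADP formation was coupled via PK/LDH to NADH oxidation, read at 340 nm, with 5.1 mM poly(E4Y1), 1 mM ATP, 25 mM MgCl2, Hepes pH 7.5. Ki came from activity across compound concentrations.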

| SMILES | IC50 [1] | Ki [2] | inhibition at 1 µM (FGF-R1) | IC50 [3] | inhibition at 1 µM (LCK tyrosine kinase) | inhibition at 0.05 µM [4] |
| --- | --- | --- | --- | --- | --- | --- |
| COc1cc(Nc2nc(N)c(-c3nc(-c4cc(NC(=O)OC(C)(C)C)ccc4Cl)no3)s2)cc(OC)c1OC [B(12), (3-{5-[4-Amino-2-(3,4,5-trimethoxy-phenylamino)-thiazol-5-yl]-[1,2,4]oxadiazoyl}-4-chloro-phenyl)-carbamic acid tert-butyl ester] | 15 nM | 1.6 nM | 52% | 3600 nM | 29% | – |
| COc1cccc(C(=O)Nc2cc(-c3noc(-c4sc(Nc5ccc(N6CCOCC6)nc5)nc4N)n3)c(F)cc2F)c1 [B(18), N-(5-{5-[4-Amino-2-(6-morpholin-4-yl-pyridin-3-ylamino)-thiazol-5-yl]-[1,2,4]oxadiazol-3-yl}-2,4-difluoro-phenyl)-3-methoxy-benzamide] | 10 nM | 0.9 nM | 8% | 1900 nM | < 0% | – |
| COc1cc(Nc2nc(N)c(-c3nc(-c4cccc(NC(=O)c5cc(C)c(O)c(C)c5)c4)cs3)s2)cc(OC)c1OC [D(58), N-{3-[4′-Amino-2′-(3,4,5-trimethoxy-phenylamino)-[2,5′]bithiazolyl-4-yl]-phenyl}-4-hydroxy-3,5-dimethyl-benzamide] | > 100 nM | 1.4 nM | 23% | > 10000 nM | 29% | – |
| COc1cc(Nc2nc(N)c(-c3nc(-c4cccc(NC(=O)CC5CC6CCC5C6)c4)cs3)s2)cc(OC)c1OC (stereo not drawn) [D(59), N-{3-[4′-Amino-2′-(3,4,5-trimethoxy-phenylamino)-[2,5′]bithiazolyl-4-yl]-phenyl}-2-bicyclo[2.2.1]hept-2-yl-acetamide] | > 100 nM | 2.8 nM | 54% | 3100 nM | 44% | – |
| COc1cc(Nc2nc(N)c(-c3nc(-c4cccc(NC(=O)c5cnc6ccccc6c5)c4)cs3)s2)cc(OC)c1OC [D(60), Quinoline-3-carboxylic acid {3-[4′-amino-2′-(3,4,5-trimethoxy-phenylamino)-[2,5′]bithiazolyl-4-yl]-phenyl}-amide] | > 100 nM | 1.4 nM | 10% | – | 11% | – |
| COc1cc(Nc2nc(N)c(-c3nc(-c4cccc(NC(=O)c5ncoc5-c5ccccc5)c4)cs3)s2)cc(OC)c1OC [D(61), 5-Phenyl-oxazole-4-carboxylic acid {3-[4′-amino-2′-(3,4,5-trimethoxy-phenylamino)-[2,5′]bithiazolyl-4-yl]-phenyl}-amide] | 165 nM | – | 9% | > 10000 nM | 4% | – |
| COc1cc(Nc2nc(N)c(-c3nc(-c4cc(NC(=O)c5cccc(Cl)c5)c(F)cc4F)no3)s2)cc(OC)c1OC [D(66), N-(5-{5-[4-Amino-2-(3,4,5-trimethoxy-phenylamino)-thiazol-5-yl]-[1,2,4]oxadiazol-3-yl}-2,4-difluoro-phenyl)-3-chloro-benzamide] | 4.2 nM | 1 nM | 55% | > 10000 nM | 15% | – |
| COc1cccc(C(=O)Nc2cc(-c3noc(-c4sc(Nc5cc(OC)c(OC)c(OC)c5)nc4N)n3)c(F)cc2F)c1 [D(67), N-(5-{5-[4-Amino-2-(3,4,5-trimethoxy-pheny-1-amino)-thiazol-5-yl]-[1,2,4]oxadiazol-3-yl}-2,4-difluoro-phenyl)-3-methoxy-benzamide] | 4.1 nM | – | 13% | > 10000 nM | 1% | – |
| COc1cc(Nc2nc(N)c(-c3nc(-c4cc(NC(=O)c5cccc(Cl)c5)c(F)cc4Cl)no3)s2)cc(OC)c1OC [D(69), N-(5-{5-[4-Amino-2-(3,4,5-trimethoxy-phenylamino)-thiazol-5-yl]-[1,2,4]oxadiazol-3-yl}-4-chloro-2-fluoro-phenyl)-3-chloro-benzamide] | 15 nM | 0.5 nM | 78% | 2300 nM | 79% | – |
| COc1cccc(C(=O)Nc2ccc(F)c(-c3noc(-c4sc(Nc5cc(OC)c(OC)c(OC)c5)nc4N)n3)c2)c1 [D(72), 3-[2-fluoro-5-[(3-methoxybenzoyl)amino]-phenyl]-5-[2-[(3,4,5-trimethoxyphenyl)amino]-4-amino-5-thiazolyl]-1,2,4-oxadiazole] | 4.7 nM | 0.9 nM | 49% | > 10000 nM | 35% | – |
| COc1cc(Nc2nc(N)c(-c3nc(-c4cc(NC(=O)c5cccc(Cl)c5)ccc4F)no3)s2)cc(OC)c1OC [D(73)] | 6 nM | 1.2 nM | 56% | 4450 nM | 41% | – |
| CNC(=O)Nc1nc(N)c(-c2nc(-c3cccc(NC(=O)c4cccc(Cl)c4)c3)cs2)s1 [F(10), N-{3-[4′-Amino-2′-(3-methyl-ureido)-[2,5′]bithiazolyl-4-yl]-phenyl}-3-chloro-benzamide] | 8.5 nM | 0.14 nM | 47% | – | 42% | – |
| CNC(=O)Nc1nc(N)c(-c2nc(-c3cccc(NC(=O)c4cccc(OC)c4)c3)cs2)s1 [F(11), N-{3-[4′-Amino-2′-(3-methyl-ureido)-[2,5′]bithiazolyl-4-yl]-phenyl}-3-methoxy-benzamide] | 12 nM | 0.26 nM | 25% | 9600 nM | 15% | – |
| Cc1cccc(C(=O)Nc2cccc(-c3noc(-c4sc(NC(=O)NC(C)C)nc4N)n3)c2)c1 [F(13), N-(3-{5-[4-Amino-2-(3-isopropyl-ureido)-thiazol-5-yl]-[1,2,4]oxadiazol-3-yl}-phenyl)-3-methyl-benzamide] | 16 nM | 0.25 nM | 25% | – | 29% | – |
| CNC(=O)Nc1nc(N)c(-c2nc(-c3cc(NC(=O)c4cccc(OC)c4)c(F)cc3F)no2)s1 [O(4), N-(5-{5-[4-Amino-2-(3-methyl-ureido)-thiazol-5-yl]-[1,2,4]oxadiazol-3-yl}-2,4-difluoro-phenyl)-3-methoxy-benzamide] | 0.64 nM | 0.19 nM | 9% | – | 3% | 87% |
| Cc1cccc(C(=O)Nc2cccc(-c3noc(-c4sc(NC(=O)NCCCN5CCOCC5)nc4N)n3)c2)c1 [O(12), N-[3-(5-{4-Amino-2-[3-(3-morpholin-4-yl-propyl)-ureido]-thiazol-5-yl}-[1,2,4]oxadiazol-3-yl)-phenyl]-3-methyl-benzamide] | 45 nM | 0.19 nM | 33% | 44000 nM | 21% | – |
| COc1cccc(C(=O)Nc2cc(-c3csc(-c4sc(NC(=O)NCCCN5CCCC5=O)nc4N)n3)c(F)cc2F)c1 [O(15), N-[5-(4′-Amino-2′-{3-[3-(2-oxo-pyrolidin-1-yl)-propyl]-ureido}-[2,5′]bithiazolyl-4-yl)-2,4-difluoro-phenyl]-3-methoxy-benzamide] | – | 0.5 nM | 28% | – | 2% | – |
